Common to all, as to type: functional
Assay [1] relates to Rattus norvegicus. Kind of assay: Stool output of rat over the 6-h collection period when a dose of 24.87 mg/kg (57.8 administered.
Assay [2] has as its system Rattus norvegicus. The assay is described as follows: Stool output of rat over the 6-h collection period when a dose of 4.97 mg/kg (11.6 uMl) was administered.
The test system of assay [3] is Rattus norvegicus. The assay is described as follows: Weight loss of rat over the 6-h experimental period when a dose of 0.03125 mg/kg (0.0726 administered.
Assay [4] has as its system Rattus norvegicus. Kind of assay: Weight loss of rat over the 6-h experimental period when a dose of 0.0625 mg/kg (0.145 administered.
Assay [5] deals with Rattus norvegicus. Kind of assay: Weight loss of rat over the 6-h experimental period when a dose of 0.125 mg/kg (0.29 administered.
The test system of assay [6] is Rattus norvegicus. The assay is described as follows: Weight loss of rat over the 6-h experimental period when a dose of 0.25 mg/kg (0.58 administered.
In assay [7] the test system is Rattus norvegicus. The assay is described as follows: Weight loss of rat over the 6-h experimental period when a dose of 0.5 mg/kg (1.16 administered.
The subject of assay [8] is Rattus norvegicus. Kind of assay: Weight loss of rat over the 6-h experimental period when a dose of 0.99 mg/kg (2.3 administered.
Assay [9] relates to Rattus norvegicus. The assay is described as follows: Weight loss of rat over the 6-h experimental period when a dose of 0 mg/kg (0 administered.
Assay [10] deals with Rattus norvegicus. Kind of assay: Weight loss of rat over the 6-h experimental period when a dose of 0.0078 mg/kg (0.0181 administered.
The subject of assay [11] is Rattus norvegicus. Kind of assay: Weight loss of rat over the 6-h experimental period when a dose of 0.0156 mg/kg (0.036 administered.
The subject of assay [12] is Rattus norvegicus. Kind of assay: Weight loss of rat over the 6-h experimental period when a dose of 24.87 mg/kg (57.8 administered.
Assay [13] has as its system Rattus norvegicus. Kind of assay: Weight loss of rat over the 6-h experimental period when a dose of 4.97 mg/kg (11.6 administered.
In assay [14] the test system is Rattus norvegicus. Kind of assay: Percent reduction was determined by using the ratio of mean of treated animal to that of control animal at a dose of 24.87 mg/kg.
Assay [15] deals with Rattus norvegicus. Kind of assay: Percent reduction was determined by using the ratio of mean of treated animal to that of control animal at a dose of 4.97 mg/kg.
Assay [16] has as its system Rattus norvegicus. The assay is described as follows: Stool output of rat over the 6-h collection period when a dose of 0.0078 mg/kg (0.0181 administered.
In assay [17] the test system is Rattus norvegicus. The assay is described as follows: Stool output of rat over the 6-h collection period when a dose of 0.0156 mg/kg (0.036 administered.
In assay [18] the test system is Rattus norvegicus. Kind of assay: Stool output of rat over the 6-h collection period when a dose of 0.03125 mg/kg (0.0726 administered.
Assay [19] concerns Rattus norvegicus. The assay is described as follows: Stool output of rat over the 6-h collection period when a dose of 0.0625 mg/kg (0.145 administered.
Assay [20] deals with Rattus norvegicus. Kind of assay: Stool output of rat over the 6-h collection period when a dose of 0.125 mg/kg (0.29 administered.
In assay [21] the test system is Rattus norvegicus. The assay is described as follows: Stool output of rat over the 6-h collection period when a dose of 0.25 mg/kg (0.58 administered.
The test system of assay [22] is Rattus norvegicus. Kind of assay: Stool output of rat over the 6-h collection period when a dose of 0.5 mg/kg (1.16 administered.
For assay [23], the system named is Rattus norvegicus. Kind of assay: Stool output of rat over the 6-h collection period when a dose of 0.99 mg/kg (2.3 administered.
Assay [24] has as its system Rattus norvegicus. Kind of assay: Stool output of rat over the 6-h collection period when a dose of 0 mg/kg (0 administered.
Assay [25] deals with Rattus norvegicus. Kind of assay: Percent reduction was determined by using the ratio of mean of treated animal to that of control animal at a dose of 0.5 mg/kg.
Assay [26] concerns Rattus norvegicus. The assay is described as follows: Percent reduction was determined by using the ratio of mean of treated animal to that of control animal at a dose of 0.0078 mg/kg.
Assay [27] has as its system Rattus norvegicus. Kind of assay: Percent reduction was determined by using the ratio of mean of treated animal to that of control animal at a dose of 0.0156 mg/kg.
Assay [28] has as its system Rattus norvegicus. Kind of assay: Percent reduction was determined by using the ratio of mean of treated animal to that of control animal at a dose of 0.03125 mg/kg.
The test system of assay [29] is Rattus norvegicus. Kind of assay: Percent reduction was determined by using the ratio of mean of treated animal to that of control animal at a dose of 0.0625 mg/kg.
In assay [30] the test system is Rattus norvegicus. Kind of assay: Percent reduction was determined by using the ratio of mean of treated animal to that of control animal at a dose of 0.125 mg/kg.
Assay [31] has as its system Rattus norvegicus. The assay is described as follows: Percent reduction was determined by using the ratio of mean of treated animal to that of control animal at a dose of 0.25 mg/kg.
In assay [32] the test system is Rattus norvegicus. The assay is described as follows: Percent reduction was determined by using the ratio of mean of treated animal to that of control animal at a dose of 0.99 mg/kg.
The subject of assay [33] is Rattus norvegicus. Kind of assay: Stool output of rat over the 6-h collection period when a dose of 28.2 mg/kg (57.8 administered.
The test system of assay [34] is Rattus norvegicus. The assay is described as follows: Stool output of rat over the 6-h collection period when a dose of 5.7 mg/kg (11.6 administered.
In assay [35] the test system is Rattus norvegicus. Kind of assay: Weight loss of rat over the 6-h experimental period when a dose of 1.1 mg/kg (2.3 administered.
Assay [36] has as its system Rattus norvegicus. Kind of assay: Weight loss of rat over the 6-h experimental period when a dose of 28.2 mg/kg (57.8 administered.
The test system of assay [37] is Rattus norvegicus. The assay is described as follows: Weight loss of rat over the 6-h experimental period when a dose of 5.7 mg/kg (11.6 administered.
For assay [38], the system named is Rattus norvegicus. The assay is described as follows: Percent reduction was determined by using the ratio of mean of treated animal to that of control animal at a dose of 28.2 mg/kg.
Assay [39] concerns Rattus norvegicus. Kind of assay: Stool output of rat over the 6-h collection period when a dose of 1.1 mg/kg (2.3 administered.

The structures appear in SMILES notation. Values joined by “and” are separate entries in the source; they are usually repeats but may differ in a detail not shown here. Equal entries are not always repeated.

As to `CCNCCCNC1CCC(NCCCNCC)CC1` (stereo unspecified), the Stool output with Rattus norvegicus [1] was <0 g (350g of rat weight)-1; in the assay on Rattus norvegicus [2], <0 g (350g of rat weight)-1; in the assay with Rattus norvegicus [16], >3.6 g (350g of rat weight)-1; with Rattus norvegicus [17], <0.4 g (350g of rat weight)-1; with Rattus norvegicus [18], <0 g (350g of rat weight)-1; in the assay on Rattus norvegicus [19] it was <0 g (350g of rat weight)-1. In addition, the Stool output with Rattus norvegicus [20] is given as <0 g (350g of rat weight)-1; in the assay on Rattus norvegicus [21], <0 g (350g of rat weight)-1; with Rattus norvegicus [22] it was <0 g (350g of rat weight)-1; with Rattus norvegicus [23], <0 g (350g of rat weight)-1; in the assay on Rattus norvegicus [24], 4.9 g (350g of rat weight)-1. The Weight loss with Rattus norvegicus [3] is less than 4.2 g; with Rattus norvegicus [4], less than 3.7 g; with Rattus norvegicus [5] it was less than 4.1 g; in the assay with Rattus norvegicus [6] it was less than 2.7 g; in the assay with Rattus norvegicus [7], less than 2.9 g; in the assay with Rattus norvegicus [8] it was less than 2.7 g. In addition, the Weight loss in the assay on Rattus norvegicus [9] is reported as 11.6 g; in the assay on Rattus norvegicus [10], less than 8.8 g; with Rattus norvegicus [11], less than 3.1 g; in the assay on Rattus norvegicus [12], less than 0.8 g; with Rattus norvegicus [13] it was less than 1.6 g. Moreover, the Reduction with Rattus norvegicus [14] is 93% and 100%; in the assay with Rattus norvegicus [15] it was 86% and 100%; in the assay with Rattus norvegicus [25] it was 75% and 100%; with Rattus norvegicus [26], 24%; in the assay with Rattus norvegicus [27] it was 73% and 92%; in the assay on Rattus norvegicus [28] it was 64% and 100%. In addition, the Reduction in the assay on Rattus norvegicus [29] is 68% and 100%; in the assay with Rattus norvegicus [30], 65% and 100%; with Rattus norvegicus [31], 77% and 100%; in the assay on Rattus norvegicus [32], 77% and 100%.
For `CC(C)CCNCCCNCCCCNCCCNCCC(C)C`, the Stool output with Rattus norvegicus [33] is on record as <0 g (350g of rat weight)-1; in the assay on Rattus norvegicus [34], >7.8 g (350g of rat weight)-1; with Rattus norvegicus [24] it was 4.6 g (350g of rat weight)-1; in the assay on Rattus norvegicus [39], >4.9 g (350g of rat weight)-1. Moreover, the Weight loss is reported as 14.6 g with Rattus norvegicus [9], greater than 14.2 g with Rattus norvegicus [35], less than 1.6 g in the assay on Rattus norvegicus [36] and greater than 18.3 g in the assay on Rattus norvegicus [37]. In the assay on Rattus norvegicus [38], the Reduction is 89% and 100%.

Values taken from ChEMBL document CHEMBL1134446, “Polyamine analogue antidiarrheals: a structure-activity study” (J Med Chem, 2001).
